# Experimental data as given in patent US20180296487A1, “SUSTAINED RELEASE INJECTABLE NEUROSTEROID FORMULATIONS” (MARINUS PHARMACEUTICALS, INC., priority 2017, published 2018).
# Where two headings read alike, the source gives them in different places.
# Tests used:
# [1] = cited from earlier work
Structure (SMILES),half-life ([1]; human plasma),solubility in water (Solubility in water) [µg/mL],half-life ([1]; human plasma following oral administration),Tmax ([1]; therapeutic blood levels are reached quickly)
"CC(=O)[C@H]1CC[C@H]2[C@@H]3CC[C@H]4C[C@H](O)CC[C@]4(C)[C@H]3CC[C@]12C [Allopregnanolone, 3α,5α-tetrahydroprogesterone]",about 45 minutes,,,
"CC(=O)[C@H]1CC[C@H]2[C@@H]3CC[C@H]4C[C@](C)(O)CC[C@]4(C)[C@H]3CC[C@]12C [Ganaxolone, 3α-hydroxy, 3β-methyl-5α-pregnan-20-one]",,< 1,approximately 20 hours,short
